Results: PubChem BioAssay (NCI)
“And” between values parts separate entries of the source, which are not always exact repeats. Equal values may be shown once.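 Each compound was tested at five concentrations against cells in 96-well plates for 48 hours. Abbreviation: GI50, concentration required for 50% inhibition of growth. TGI denotes the concentration required for complete inhibition of growth.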

Experiments:
Experiment in all cases: NCI-60 cell line screen, 48 h
DMS 114 small cell lung = system: DMS 114 small cell lung
HOP-18 NSCLC = system: HOP-18 NSCLC
DMS 273 small cell lung = system: DMS 273 small cell lung
XF 498 CNS = system: XF 498 CNS
LXFL 529 NSCLC = system: LXFL 529 NSCLC
MDA-MB-435 = system: MDA-MB-435
BT-549 breast = system: BT-549 breast
RXF-631 renal = system: RXF-631 renal
MDA-N = system: MDA-N

O=C(O)/C(Cl)=C(\Cl)Nc1cccc(C(F)(F)F)c1
TGI (DMS 114 small cell lung): > 100 µM
TGI (HOP-18 NSCLC): > 100 µM
TGI (DMS 273 small cell lung): > 100 µM
TGI (XF 498 CNS): > 100 µM
TGI (LXFL 529 NSCLC): > 100 µM

O=C1C2CC3C(CC2C(=O)[N]1[Sn]([c]1ccccc1)([c]1ccccc1)[c]1ccccc1)C1(Cl)C(Cl)=C(Cl)C3(Cl)C1(Cl)Cl (stereo unspecified)
GI50 (MDA-MB-435): 0.0872 µM
TGI (MDA-MB-435): 0.257 µM
GI50 (BT-549 breast): 0.185 µM
TGI (BT-549 breast): 0.369 µM

COC(=O)C1=CC(O)CCC1c1ccc(OC)cc1 (stereo unspecified)
TGI (DMS 114 small cell lung): > 100 µM
TGI (HOP-18 NSCLC): > 100 µM
TGI (DMS 273 small cell lung): > 100 µM
TGI (LXFL 529 NSCLC): > 100 µM

CCc1ccccc1NC(=O)/C(CC(=O)c1c(C)n([O-])c2ccccc2[n+]1=O)=N\NS(=O)(=O)c1ccc(C)cc1
TGI (DMS 114 small cell lung): 30.3 µM
TGI (RXF-631 renal): > 100 µM
TGI (DMS 273 small cell lung): > 100 µM
TGI (LXFL 529 NSCLC): > 100 µM

CC1(C)SC2C(C(=O)O)N=C(Cc3ccccc3)N2C1C(=O)O (stereo unspecified)
TGI (MDA-MB-435): > 100 µM
TGI (BT-549 breast): > 100 µM
TGI (MDA-N): > 100 µM

Cc1ccc(-c2csc(N(C(=O)N3CCN(c4cc5c(cc4F)c(=O)c(C(=O)O)cn5C4CC4)CC3)c3ccccc3)n2)cc1
GI50 (BT-549 breast): 0.32 µM
TGI (BT-549 breast): 3.31 µM

CC(=O)O[C@H](C[C@H](C(C)C)N(C)C(=O)[C@@H](NC(=O)[C@H]1CCCCN1C)C(C)C)c1nc(C(=O)N[C@@H](Cc2ccccc2)C[C@H](C)C(=O)O)c(C)s1
GI50 (BT-549 breast): < 0.0025 µM
TGI (BT-549 breast): 0.0627 µM

COc1ccc(C(=S)c2cc(OC)c(OC)c(OC)c2)cc1OC(=O)CCl
GI50 (MDA-MB-435): < 0.01 µM
TGI (MDA-MB-435): < 0.0108 µM
GI50 (BT-549 breast): < 0.0175 µM
TGI (BT-549 breast): 0.922 µM

COc1cc(C(=O)C/C(CCC(=O)Nc2ccccc2[N+](=O)[O-])=N\NC(=O)C(N)=O)ccc1O
TGI (DMS 114 small cell lung): > 100 µM
TGI (HOP-18 NSCLC): > 100 µM
TGI (RXF-631 renal): > 100 µM
TGI (DMS 273 small cell lung): > 100 µM
TGI (LXFL 529 NSCLC): > 100 µM

O=c1ncc(-c2ccc(C(F)(F)F)cc2)c(NC2CCCCCC2)[nH]1
GI50 (MDA-MB-435): 15.6 µM
TGI (MDA-MB-435): 34.4 µM
GI50 (BT-549 breast): 19.5 µM
TGI (BT-549 breast): 39 µM

CC[C@H](C)c1occ2c(O)c(C(=O)O)c(=O)cc-2c1C
TGI (MDA-MB-435): 58 µM
TGI (BT-549 breast): 64.6 µM
TGI (MDA-N): > 100 µM

N=c1ccn2c(n1)OC1C(OP(=O)(O)O)C(CO)OC12 (stereo unspecified)
TGI (MDA-MB-435): > 100 µM
TGI (BT-549 breast): > 100 µM
TGI (MDA-N): > 100 µM

O=C(OC(C(=O)O)C(OC(=O)c1ccccc1)C(=O)O)c1ccccc1 (stereo unspecified) (tested in a mixture with another compound)
TGI (MDA-MB-435): 62.7 µM
TGI (HOP-18 NSCLC): 9.71 µM and 84.2 µM
TGI (BT-549 breast): 27 µM
TGI (DMS 273 small cell lung): > 100 µM and 14.1 µM
TGI (MDA-N): 43 µM

COc1ccc2cc(C(=O)c3ccccc3C(=O)O)ccc2c1
TGI (DMS 114 small cell lung): > 100 µM
TGI (HOP-18 NSCLC): > 100 µM
TGI (DMS 273 small cell lung): > 100 µM
TGI (LXFL 529 NSCLC): > 100 µM

COc1ccc(OC)c(/C=C/c2nnc(Nc3ccc(Cl)cc3)o2)c1
GI50 (MDA-MB-435): 37 µM
TGI (MDA-MB-435): > 100 µM

COC1=CC(=O)c2ccc(C(C)C)cc2C1(C)C1=NC(C)(C)CO1 (stereo unspecified)
TGI (DMS 114 small cell lung): > 100 µM
TGI (HOP-18 NSCLC): > 100 µM
TGI (DMS 273 small cell lung): > 100 µM
TGI (XF 498 CNS): > 100 µM
TGI (LXFL 529 NSCLC): > 100 µM

O=S(=O)(/C=C/C=C/S(=O)(=O)c1ccccc1)c1ccccc1
GI50 (MDA-MB-435): 1.04 µM
TGI (MDA-MB-435): 4.21 µM and 4.19 µM
TGI (BT-549 breast): 3.15 µM
GI50 (MDA-N): 1.4 µM
TGI (MDA-N): 2.88 µM and 7.28 µM

O=C1C=C(Nc2ccccc2)c2ncccc2C1=O
GI50 (MDA-MB-435): 0.178 µM
TGI (MDA-MB-435): 0.323 µM
GI50 (BT-549 breast): 1.28 µM
TGI (BT-549 breast): 2.64 µM

C[C@H](c1ccc(Cl)cc1N)N1C(=O)c2cc(I)ccc2N(CCCN2CCN(C)CC2)C(=O)[C@@H]1c1ccc(Cl)cc1
GI50 (MDA-MB-435): 1.81 µM
TGI (MDA-MB-435): 3.57 µM

Nc1ccccc1NC(=O)c1ccc(CSc2nc(N3CCOCC3)c3cccn3n2)cc1
GI50 (MDA-MB-435): 0.27 µM
TGI (MDA-MB-435): 1 µM
GI50 (BT-549 breast): 1.14 µM
TGI (BT-549 breast): 4.59 µM

CC(C)(Cl)CCC1=C(Cl)C(=O)c2ccccc2C1=O
GI50 (MDA-MB-435): 2.15 µM
TGI (MDA-MB-435): 4.62 µM
GI50 (BT-549 breast): 2.35 µM
TGI (BT-549 breast): 8.78 µM

COc1ccccc1/C=C/C(=O)c1sc(-c2cccnc2)nc1C
TGI (DMS 114 small cell lung): > 100 µM
TGI (HOP-18 NSCLC): > 100 µM
TGI (DMS 273 small cell lung): > 100 µM

COc1ccc(-c2cc(-c3ccc(Nc4nc(Nc5ccc(Cl)cc5)nc(Nc5ccc(Cl)cc5)n4)cc3)no2)cc1
GI50 (MDA-MB-435): 10.3 µM
TGI (MDA-MB-435): 37 µM
GI50 (BT-549 breast): 17.2 µM
TGI (BT-549 breast): 72 µM

Nc1ncc(-c2cnn(C3CCNCC3)c2)cc1-c1nc2ccccc2o1
GI50 (MDA-MB-435): 1.21 µM
TGI (MDA-MB-435): 2.62 µM
GI50 (BT-549 breast): 2.44 µM
TGI (BT-549 breast): 10.2 µM

CCCCCCCC[N+](C)(C)Cc1ccc(C[N+](C)(C)CCCCCCCC)cc1
TGI (DMS 114 small cell lung): > 100 µM
TGI (HOP-18 NSCLC): > 100 µM
TGI (RXF-631 renal): > 100 µM
TGI (DMS 273 small cell lung): 36.5 µM
TGI (LXFL 529 NSCLC): > 100 µM

CNC(=O)c1ccc(Nc2ncc(C(F)(F)F)c(NCc3nccnc3N(C)S(C)(=O)=O)n2)cc1
GI50 (MDA-MB-435): 3.55 µM and 3.05 µM and 2.67 µM
TGI (MDA-MB-435): > 10 µM and 13.6 µM and 15.2 µM
GI50 (BT-549 breast): 2.98 µM and 2.06 µM and 2.14 µM
TGI (BT-549 breast): > 10 µM and 7.41 µM and 9.73 µM

O=C1C(=O)c2cc([N+](=O)[O-])ccc2-c2ccccc21
GI50 (MDA-MB-435): 0.402 µM
TGI (MDA-MB-435): 1.53 µM
GI50 (BT-549 breast): 1.83 µM
TGI (BT-549 breast): 3.22 µM

CC(C#N)c1cn(S(=O)(=O)c2ccccc2)c2ccccc12 (stereo unspecified)
TGI (DMS 114 small cell lung): > 100 µM
TGI (DMS 273 small cell lung): > 100 µM
TGI (XF 498 CNS): > 100 µM
TGI (LXFL 529 NSCLC): > 100 µM

CC(=O)[O-].CC(=O)[O-].[Mn+2].c1ccc(/C(=N\Nc2ccccn2)c2ccccn2)cc1
TGI (DMS 114 small cell lung): 0.0212 µM
TGI (MDA-MB-435): 18.7 µM
TGI (HOP-18 NSCLC): 14.3 µM
TGI (BT-549 breast): 14.4 µM
TGI (MDA-N): 22.5 µM
TGI (LXFL 529 NSCLC): 17.2 µM

O=c1c(O)c(-c2ccc(O)c(O)c2)oc2cc(O)ccc12
TGI (DMS 114 small cell lung): 55.1 µM
TGI (HOP-18 NSCLC): 52.2 µM
TGI (DMS 273 small cell lung): 28.2 µM
TGI (XF 498 CNS): 44.1 µM
TGI (LXFL 529 NSCLC): > 87.7 µM

COc1ccc(-c2coc3ncnc(N)c23)cc1
GI50 (MDA-MB-435): > 25 µM
TGI (MDA-MB-435): > 25 µM
GI50 (BT-549 breast): > 25 µM
TGI (BT-549 breast): > 25 µM

CC1=CC2=C(OCO1)C(=O)c1ccccc1C2=O
TGI (DMS 114 small cell lung): 12.1 µM
TGI (MDA-MB-435): 2.77 µM
TGI (HOP-18 NSCLC): 27.1 µM
TGI (DMS 273 small cell lung): 26.7 µM
TGI (MDA-N): 1.48 µM
TGI (LXFL 529 NSCLC): 52.8 µM

C=C(C)C1CC=C(C(=O)O)CC1 (stereo unspecified)
TGI (DMS 114 small cell lung): > 5000 µM
TGI (RXF-631 renal): 1620 µM
TGI (DMS 273 small cell lung): > 5000 µM
TGI (LXFL 529 NSCLC): > 5000 µM
